# Measurements from patent US4386103A, “Dichloroamino acid derivatives useful as potent germicidal and fungicidal agents” (Merck & Co., Inc., priority 1981, dated 1983).
# Key:
# Format in all cases: cell-based
# [1] = system: Staphylococcus aureus; test: Contact germicidal screen, Staphylococcus aureus ATCC No. 6538
# Method: (§1) The organisms used in the contact germicidal screen are all maintained as stock cultures on nutrient agar […] 4° C. They are transferred and biochemically diagnosed monthly. The five organisms used are: The media used are: […] Overnight cultures of the test organisms are grown in tryptose phosphate broth. After 15-16 hours, the cultures are centrifuged at […] for 15 minutes, and the supernatant replaced with fresh warm (37° C.) media. After two hours of incubation, the absorbance of the culture at 650 nm is determined and diluted with nutrient broth to 1×10^7 colony forming units per ml (using a previous determined standard curve: colony forming units/ml vs. absorbance at 650). The diluted cultures are maintained at 4°-8° C. throughout the screen. The compounds are weighed into sterile 100 ml volumetric flasks, and immediately before screening dissolved in one of the following buffers: 0.1 M NaOAc pH 4.6 or 0.1 M NaH2 PO4 pH 7.0. If solubility poses a problem, 10-30% methanol is used to effect solution. Two denaturing agents are also tested: […] Horse Serum restored with 100 ml distilled water and 10% Trition×100. When used, 2.5 ml of the denaturing agent is mixed with 2.5 ml of double strength test solution thirty minutes before the bacterial suspension is added. The screen is initiated when 0.2 ml of the bacterial suspension is added to 5.0 ml of the test solution contained in a sterile 25 ml glass stoppered flask. At intervals of 0.5, 2.5, 5.0, 10.0 and 15.0 minutes, a loopful of the inoculated test solution is subcultured into 5 ml of sterile nutrient broth and mixed with a vortex, the high dilution serving to stop the action of the compound. All of the subculture tubes are incubated at 37° C. and checked for signs of growth by turbidity at 1, 3, 5 and 7 days. The earliest subculture time at which no growth is present is considered the endpoint and is recorded as the sterilization time. An aliquot of 0.2 ml of the diluted culture is transferred to 5 ml of buffer to simulate 0.2 ml in 5 ml of test solution. (a) Purity: A loopful of the inoculated buffer is streaked onto nutrient agar to check colony morphology and lack of contaminants. (b) Viability: A loopful of the inoculated buffer is subcultured to 5 ml of nutrient broth as in the screen and incubated at 37° C. for 24 hours. (c) Dilution of the Test Solution: A loopful of the test solution is transferred to a 5 ml tube of nutrient broth, and a loopful of the inoculated buffer is transferred to the same tube of broth. […] (d) Purity of Organisms in the Test Solution: After the 15 minute subculture, a loopful of the inoculated test solution is streaked onto nutrient agar to insure that contamination has not occurred during the screen. (e) lack of Bactericidal Activity of Buffers and Other Solvents: Before a buffer or other solvent is used as a diluent, it is screened against the five organisms to insure that the buffer or solvent has no antibacterial activity itself.
# [2] = system: Candida albican; test: Contact fungicidal screen, Candida albican; conditions: 0.1M NaOAc pH 4.6
# Method: The organisms used in the Contact Fungicidal Screen are a dermatophyte, trychophyton mentagrophytes, frequently associated with athlete's foot; a yeast, Candida albican, causative agent of thrush and vaginitis; a phycomycete, Rhizopus oryzae, commonly known as black bread mold; an ascomycete, Aspergillus fumagatis, found in chicken droppings and causing lung infections; and another dermatophyte, Microsporum canis, which causes ringworm. These organisms are maintained as stock cultures at 4° C. on agar slants of the following composition: dextrose 2%, Neopeptone (Difco) 1%, agar 2%. Fluid medium of the same nutrient composition (without agar) was used to test the viability of the organisms after exposure to the fungicide. This medium is also known as Sabouraud's medium.
# The Candida albican is grown in Sabouraud's liquid medium at 25°-30° C. for three days. At the end of the incubation period the cell suspension is centrifuged at 200 G and washed with sterile physiological saline (0.85% NaCl). The density of the cell suspension is determined by counting in a hemacytometer. The suspension is stored a 4° C. until it is used, at which time it is diluted with sterile physiological saline to a density of 5×10^6 cells per ml.
# The compounds are weighed into heat sterilized 100 ml volumetric flasks and immediately before screening dissolved in 0.1 M NaOAc pH 4.6 buffer (test solutions).
# The Aspergillus, Candida, Microsporum and Rhizopus species are screened in a slightly different manner. Basically, the procedure for the Contact Germicidal Efficiency Screen is utilized. After the test solutions are made up, 5 ml aliquots are pipetted into heat sterilized 25 ml glass stoppered erlenmeyer flasks. The screen is initiated when 0.5 ml of the 5×10^6 cell (spore) per ml suspension is added to the flask containing 5 ml of the test solution. At intervals of 0.5, 2.5, 5.0, 10.0 and 15.0 minutes, a 4 mm loopful of the inoculated test solution is subcultured into 7 mL of sterile fluid Sabouraud's medium and mixed on a vortex, the high dilution serving to stop the action of the compound. The subculture tubes are incubated at 25°-30° C. for ten days with daily observation for mycelial growth. The earliest subculture time at which no growth is present is considered the endpoint and is recorded as the sterilization time.
# To insure the viability of the culture, a 0.5 ml aliquot of the 5×10^6 cells (spores) per ml suspension is transferred to 5 ml of the pH 4.6 buffer. A loopful of the inoculated buffer is then subcultured to 7 ml of fluid Sabouraud's medium and incubated at 25°-30° C. for ten days. To insure that the dilution of the test solution into the subculture medium does stop the action, a loopful of the test solution and a loopful of the inoculated buffer are transferred into the same subculture tube. This tube is also incubated at 25°-30° C. for ten days.
# [3] = system: Pseudamonas aeruginosa; test: Contact germicidal screen, Pseudamonas aeruginosa ATCC No. 14502
# Method: as §1
# [4] = 10.0+ PPM, 0.1M NaOAc pH 4.6, screened simultaneously with four other compounds
# [5] = 291.4 PPM, Triton X100 (10% solution):pH 4.6 buffer 1:1
# [6] = 291.4 PPM, horse serum:pH 4.6 buffer 1:1
# [7] = 300 PPM with 50% Horse Serum, 0.1M NaOAc pH 4.6
# [8] = 300 PPM with 50% Triton X100, 0.1M NaOAc pH 4.6
# [9] = 1000 PPM with 50% Horse Serum, 0.1M NaOAc pH 4.6
# [10] = 1024.4 PPM, 0.1M NaH2PO4 pH 7.0
# [11] = 1042.0 PPM, horse serum:pH 4.6 buffer 1:1
smiles,measurement,setting,value
"CC(C)(COC(=O)CCCC(=O)O)N(Cl)Cl [(V), 2-dichloramino-2-methylpropyl-hemiglutarate]",Sterilization Time,[1]; [4],10.0 min
same,Sterilization Time,"[1]; 10.0 PPM, 0.1M NaH2PO4 pH 7.0",15 min
same,Sterilization Time (summary),"[1]; 10 PPM, 0.1M NaOAc pH 4.6",10.0 min
same,Sterilization Time,"[1]; 10.0 PPM, 0.1M NaOAc pH 4.6",10.0 min
same,Sterilization Time,"[1]; 99.1 PPM, 0.1M NaOAc pH 4.6",2.5 min
same,Sterilization Time (summary),"[1]; 100 PPM, 0.1M NaOAc pH 4.6",2.5 min
same,Sterilization Time,"[1]; 106.7 PPM, 0.1M NaH2PO4 pH 7.0",15 min
same,Sterilization Time,[1]; [5],2.5 min
same,Sterilization Time,[1]; [6],15 min
same,Sterilization Time (summary),[1]; [7],15 min
same,Sterilization Time (summary),[1]; [8],2.5 min
same,Sterilization Time,"[1]; 911.8 PPM, 0.1M NaOAc pH 4.6",0.5 min
same,Sterilization Time (summary),[1]; [9],2.5 min
same,Sterilization Time (summary),"[1]; 1000 PPM, 0.1M NaOAc pH 4.6",0.5 min
same,Sterilization Time,[1]; [10],5.0 min
same,Sterilization Time,[1]; [11],2.5 min
same,Sterilization Time,[2]; 10 PPM,15 min
same,Sterilization Time,[2]; 100 PPM,15 min
same,Sterilization Time,[2]; 1000 PPM,0.5 min
same,Sterilization Time,[3]; [4],5.0 min
same,Sterilization Time,"[3]; 10.0 PPM, 0.1M NaH2PO4 pH 7.0",15 min
same,Sterilization Time (summary),"[3]; 10 PPM, 0.1M NaOAc pH 4.6",5.0 min
same,Sterilization Time,"[3]; 10.0 PPM, 0.1M NaOAc pH 4.6",10.0 min
same,Sterilization Time,"[3]; 99.1 PPM, 0.1M NaOAc pH 4.6",2.5 min
same,Sterilization Time (summary),"[3]; 100 PPM, 0.1M NaOAc pH 4.6",2.5 min
same,Sterilization Time,"[3]; 106.7 PPM, 0.1M NaH2PO4 pH 7.0",15 min
same,Sterilization Time,[3]; [5],2.5 min
same,Sterilization Time,[3]; [6],15 min
same,Sterilization Time (summary),[3]; [7],15 min
same,Sterilization Time (summary),[3]; [8],2.5 min
same,Sterilization Time,"[3]; 911.8 PPM, 0.1M NaOAc pH 4.6",0.5 min
same,Sterilization Time (summary),[3]; [9],10.0 min
same,Sterilization Time (summary),"[3]; 1000 PPM, 0.1M NaOAc pH 4.6",0.5 min
same,Sterilization Time,[3]; [10],15 min
same,Sterilization Time,[3]; [11],10.0 min
